Where two headings read alike, the source gives them in different places.

Holding throughout (assay type): cell-based
The target of experiment [1] is T1, human somatostatin receptor subtype 2a (Homo sapiens, UniProt P30874).
T1 construct: expressed in transfected cells
The experiment in a line: cAMP assay for SSTR2a agonists (HTRF cAMP kit, NKH-477 stimulated). The settings on record: CHO cells stably expressing human SSTR2a, 1.6 μM NKH-477. On the procedure:
(§1) Chinese hamster ovary (CHO) cells stably expressing one of the six human or rodent somatostatin receptor subtypes are grown to 85-100% confluence on standard tissue culture dishes in F12-Ham's growth media (Hyclone) with following additives: 10% donor calf serum (Hyclone), 200 U/mL penicillin (Hyclone), 200 μg/mL streptomycin (Hyclone), 20 mM HEPES (Hyclone), 200 μg/mL hygromycin Hyclone.
(§2) General overview: All SSTR subtypes are Gi coupled G-protein coupled receptors (GPCRs) that lead to decreases in intracellular cyclic AMP (cAMP) when activated by an agonist. Therefore, measurement of intracellular cAMP levels can be used to assess whether compounds of the invention are agonists of SSTR subtypes (John Kelly, Troy Stevens, W. Joseph Thompson, and Roland Seifert, Current Protocols in Pharmacology, 2005, 2.2.1-2.2). One example of an intracellular cAMP assay is described below.
Four days prior to the assay, 5000 Chinese hamster ovary (CHO) cells stably expressing the human somatostatin receptor subtype 2a are plated in each well of a 96-well tissue culture plate (Nest Biotech Cell, flat bottom with low evaporation tissue culture treated; Polystyrene; Non-Pyrogenic) in F12-Ham's media (100 μL/well) supplemented with 200 μg/mL of hygromycin. Incubate at 37 C, 5% CO2, 95% humidity for four days. The cells should reach full confluence. On the day of the assay, various dilutions of the compounds of the invention are prepared in assay buffer (HRTF cAMP kit, Cisbio) in the presence of 1.6 μM NKH-477 (a water-soluble forskolin derivative) and 50 μL of the dilutions are added to the cultured cells and incubated for 20 minutes at 37° C. […] 50 μL of lysis buffer (HRTF cAMP kit, Cisbio) is added to each well and incubated at room temperature for 30 minutes, after which 150 μL assay buffer is added to each well. In a 384-well plate (Grenier, 784-080), 10 μL of assay mixture is added to 10 μL of developing mixture, containing cAMP detection and visualization antibodies are added and the assay is allowed incubate for 1-24 hours at room temperature. The intracellular cAMP concentrations are then measured using a commercially available detection kit (for example, the cAMP HTRF kit, Cisbio). The measured intracellular cAMP concentrations are plotted vs. the concentration of the compounds of the invention and the EC50 of the compounds are calculated using standard methods.
Background: cAMP levels reflect the balance of adenylyl cyclase and phosphodiesterase activity.

For another experiment, the target named is SSTR3 (UniProt P32745). The experiment in a line: cAMP functional agonist assay, CHO cells expressing SSTR3. The settings on record: CHO cells stably expressing SSTR3, cAMP. The protocol:
as §1, §2

The next experiment has as its target T2, SSTR4 (Homo sapiens, UniProt P31391).
T2 construct: expressed in transfected cells
As to the kind of experiment: cAMP functional agonist assay, CHO cells expressing SSTR4. The protocol: as §1
(§3) General overview: All SSTR subtypes are Gi coupled G-protein coupled receptors (GPCRs) that lead to decreases in intracellular cyclic AMP (cAMP) when activated by an agonist. […] One example of an intracellular cAMP assay is described below.

The target in a further experiment is T3, SSTR5 (Homo sapiens, UniProt P35346).
T3 construct: expressed in transfected cells
T3 sequence (P35346 whole entry): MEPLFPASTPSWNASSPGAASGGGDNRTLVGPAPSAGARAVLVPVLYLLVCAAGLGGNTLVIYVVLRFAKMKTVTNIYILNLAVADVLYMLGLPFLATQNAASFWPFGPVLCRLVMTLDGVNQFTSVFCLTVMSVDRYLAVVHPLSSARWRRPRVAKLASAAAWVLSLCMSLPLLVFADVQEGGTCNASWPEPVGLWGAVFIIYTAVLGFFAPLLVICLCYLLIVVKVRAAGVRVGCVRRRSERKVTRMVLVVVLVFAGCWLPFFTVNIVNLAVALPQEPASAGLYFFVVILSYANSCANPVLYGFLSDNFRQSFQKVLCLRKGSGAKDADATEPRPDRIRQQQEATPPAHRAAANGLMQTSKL
As to the kind of experiment: cAMP functional agonist assay, CHO cells expressing SSTR5. The settings on record: CHO cells stably expressing SSTR5, cAMP. On the procedure: as §1, §2

A further experiment has as its target T4, SSTR1 (Homo sapiens, UniProt P30872).
T4 construct: expressed in transfected cells
As to the kind of experiment: cAMP functional agonist assay, CHO cells expressing SSTR1. On the procedure:
as §1, §3

Setting [2] is: CHO cells stably expressing SSTR4, cAMP, read-out: SSTR4 EC50.

T4 sequence (P30872 whole entry): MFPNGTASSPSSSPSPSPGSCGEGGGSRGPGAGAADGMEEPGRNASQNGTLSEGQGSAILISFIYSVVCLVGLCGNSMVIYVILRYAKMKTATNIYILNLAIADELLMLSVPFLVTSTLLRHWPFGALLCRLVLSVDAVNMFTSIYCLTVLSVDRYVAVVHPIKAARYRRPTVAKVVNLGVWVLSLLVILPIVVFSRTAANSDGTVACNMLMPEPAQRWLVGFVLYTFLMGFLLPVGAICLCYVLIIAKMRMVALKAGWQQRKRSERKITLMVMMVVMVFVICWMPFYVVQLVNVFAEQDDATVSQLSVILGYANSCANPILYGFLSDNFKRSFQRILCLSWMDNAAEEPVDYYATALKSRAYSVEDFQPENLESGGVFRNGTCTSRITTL
T2 sequence (P31391 whole entry): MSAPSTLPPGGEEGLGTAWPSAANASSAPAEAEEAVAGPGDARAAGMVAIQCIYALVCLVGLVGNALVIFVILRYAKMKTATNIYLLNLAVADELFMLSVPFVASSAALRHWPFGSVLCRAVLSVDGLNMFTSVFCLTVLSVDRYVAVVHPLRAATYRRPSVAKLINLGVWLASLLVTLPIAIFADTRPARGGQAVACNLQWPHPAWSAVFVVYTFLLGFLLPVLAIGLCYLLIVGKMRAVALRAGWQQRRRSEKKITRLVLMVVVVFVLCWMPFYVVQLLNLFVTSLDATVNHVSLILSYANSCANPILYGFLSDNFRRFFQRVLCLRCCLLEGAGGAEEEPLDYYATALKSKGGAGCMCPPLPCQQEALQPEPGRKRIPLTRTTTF
T1 sequence (P30874 whole entry): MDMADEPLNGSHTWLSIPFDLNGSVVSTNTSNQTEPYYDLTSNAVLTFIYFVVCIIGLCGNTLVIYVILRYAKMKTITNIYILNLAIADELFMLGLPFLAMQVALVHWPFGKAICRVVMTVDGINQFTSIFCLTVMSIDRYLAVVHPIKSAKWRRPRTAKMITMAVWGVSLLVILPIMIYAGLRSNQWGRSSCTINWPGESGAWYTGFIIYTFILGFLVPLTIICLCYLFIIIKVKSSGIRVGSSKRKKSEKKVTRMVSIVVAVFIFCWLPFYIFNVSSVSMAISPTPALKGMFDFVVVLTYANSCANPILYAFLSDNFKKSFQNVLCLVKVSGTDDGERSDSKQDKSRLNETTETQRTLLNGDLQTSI
Chain of SSTR3 (P32745 whole entry): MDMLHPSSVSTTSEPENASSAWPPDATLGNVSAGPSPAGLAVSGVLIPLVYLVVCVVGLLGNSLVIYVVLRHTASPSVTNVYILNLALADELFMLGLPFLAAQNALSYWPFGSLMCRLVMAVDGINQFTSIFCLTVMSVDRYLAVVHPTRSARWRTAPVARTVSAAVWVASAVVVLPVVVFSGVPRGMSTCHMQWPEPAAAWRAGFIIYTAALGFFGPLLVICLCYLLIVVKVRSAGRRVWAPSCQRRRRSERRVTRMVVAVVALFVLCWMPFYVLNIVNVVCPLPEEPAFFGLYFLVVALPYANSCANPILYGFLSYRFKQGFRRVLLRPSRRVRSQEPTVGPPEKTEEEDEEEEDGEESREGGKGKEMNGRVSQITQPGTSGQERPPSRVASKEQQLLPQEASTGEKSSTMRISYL

By EC50 is commonly meant the concentration at which the effect is half-maximal. Take “3-[5-({[(2S)-2-aminobutyl](methyl)amino}methyl)-6-(3,5-dimethylphenyl)-4-oxo-3H,4H-pyrido[2,3-d]pyrimidin-3-yl]-5-fluorobenzamide [Compound A-64]”: the 50% effective concentration (EC50) in experiment [1] is < 100 nM; on SSTR3 it was 100 to 10000 nM; at SSTR4 (setting [2]) it was 100 to 10000 nM; at SSTR5, 100 to 10000 nM.

For `Cc1cc(C)cc(-c2cnc3ncn(-c4cccc(O)c4)c(=O)c3c2CN(C)CCNCc2ccccc2)c1` [Compound A-6, 5-({[2-(benzylamino)ethyl](methyl)amino}methyl)-6-(3,5-dimethylphenyl)-3-(3-hydroxyphenyl)-3H,4H-pyrido[2,3-d]pyrimidin-4-one], the values for the concentration for a half-maximal effect (EC50) (in experiment [1]; at SSTR4 (setting [2]); on SSTR5) were 100 to 10000 nM, 100 to 10000 nM and > 10000 nM, respectively.

Take `CC(C)c1cccc(-c2cnc3ncn(-c4cccc(O)c4)c(=O)c3c2CN(C)CC2CCCCN2)c1` (stereo not shown) [Compound A-22, 3-(3-hydroxyphenyl)-5-{[methyl(piperidin-2-ylmethyl)amino]methyl}-6-[3-(propan-2-yl)phenyl]-3H,4H-pyrido[2,3-d]pyrimidin-4-one]: the results for the concentration for a half-maximal effect (EC50) (in experiment [1]; at SSTR4 (setting [2])) were 100 to 10000 nM and < 100 nM, respectively.

Regarding `COc1cccc(-c2cnc3ncn(-c4cccc(O)c4)c(=O)c3c2CN(C)CC2CCCCN2)c1` (stereo not shown) [Compound A-23, 3-(3-hydroxyphenyl)-6-(3-methoxyphenyl)-5-{[methyl(piperidin-2-ylmethyl)amino]methyl}-3H,4H-pyrido[2,3-d]pyrimidin-4-one], the concentration for a half-maximal effect (EC50) (in experiment [1]; on SSTR3; on SSTR4 (setting [2])) was < 100 nM throughout.

For the molecule `Cc1cc(Cl)cc(-c2cnc3ncn(-c4cccc(C(N)=O)c4)c(=O)c3c2CN(C)C[C@@H]2CCCN2)c1` [Compound A-31, 3-[6-(3-chloro-5-methylphenyl)-5-({methyl[(2S)-pyrrolidin-2-ylmethyl]amino}methyl)-4-oxo-3H,4H-pyrido[2,3-d]pyrimidin-3-yl]benzamide], the 50% effective concentration (EC50) in experiment [1] was < 100 nM; at SSTR3, 100 to 10000 nM; on SSTR4 (setting [2]), < 100 nM.

Regarding `CN(Cc1c(-c2cc(F)cc(Cl)c2)cnc2ncn(-c3cccc(O)c3)c(=O)c12)C[C@@H]1CCCN1` [Compound A-35, 6-(3-chloro-5-fluorophenyl)-3-(3-hydroxyphenyl)-5-({methyl[(2S)-pyrrolidin-2-ylmethyl]amino}methyl)-3H,4H-pyrido[2,3-d]pyrimidin-4-one], the EC50 was 100 to 10000 nM on SSTR1, < 100 nM at SSTR3, < 100 nM on SSTR4 and 100 to 10000 nM at SSTR5.

Take `Cc1cc(F)cc(-c2cnc3ncn(-c4cccc(O)c4)c(=O)c3c2CN(C)C[C@@H]2CCCN2)c1` [Compound A-36, 6-(3-fluoro-5-methylphenyl)-3-(3-hydroxyphenyl)-5-({methyl[(2S)-pyrrolidin-2-ylmethyl]amino}methyl)-3H,4H-pyrido[2,3-d]pyrimidin-4-one]: the concentration for a half-maximal effect (EC50) on SSTR1 is 100 to 10000 nM; at SSTR3, 100 to 10000 nM; at SSTR4, < 100 nM; at SSTR5, > 10000 nM.

For the molecule `CN(Cc1c(-c2cc(Cl)cc(CO)c2)cnc2ncn(-c3cccc(O)c3)c(=O)c12)C[C@@H]1CCCN1` [Compound A-38, 6-[3-chloro-5-(hydroxymethyl)phenyl]-3-(3-hydroxyphenyl)-5-({methyl[(2S)-pyrrolidin-2-ylmethyl]amino}methyl)-3H,4H-pyrido[2,3-d]pyrimidin-4-one], the concentration for a half-maximal effect (EC50) was 100 to 10000 nM on SSTR1, < 100 nM on SSTR3, < 100 nM on SSTR4 and 100 to 10000 nM at SSTR5.

Take `Cc1cc(C)cc(-c2cnc3ncn(-c4cccc(C(N)=O)c4)c(=O)c3c2CN(C)C[C@@H]2CCCN2)c1` [Compound A-39, 3-[6-(3,5-dimethylphenyl)-5-({methyl[(2S)-pyrrolidin-2-ylmethyl]amino}methyl)-4-oxo-3H,4H-pyrido[2,3-d]pyrimidin-3-yl]benzamide]: the concentration for a half-maximal effect (EC50) at SSTR1 is > 10000 nM; on SSTR3 it was 100 to 10000 nM; at SSTR4 it was < 100 nM; on SSTR5, > 10000 nM.

Take `Cc1cc(C)cc(-c2cnc3ncn(-c4cccc(C#N)c4)c(=O)c3c2CN(C)C[C@@H]2CCCN2)c1` [Compound A-42, 3-[6-(3,5-dimethylphenyl)-5-({methyl[(2S)-pyrrolidin-2-ylmethyl]amino}methyl)-4-oxo-3H,4H-pyrido[2,3-d]pyrimidin-3-yl]benzonitrile]: the concentration giving a half-maximal response (EC50) at SSTR1 was 100 to 10000 nM; on SSTR3, 100 to 10000 nM; on SSTR4, < 100 nM; at SSTR5 it was > 10000 nM.

For `Cc1cc(C)cc(-c2cnc3ncn(-c4cc(C)cc(O)c4)c(=O)c3c2CN(C)C[C@@H]2CCCN2)c1` [Compound A-44, 6-(3,5-dimethylphenyl)-3-(3-hydroxy-5-methylphenyl)-5-({methyl[(2S)-pyrrolidin-2-ylmethyl]amino}methyl)-3H,4H-pyrido[2,3-d]pyrimidin-4-one], the EC50 on SSTR1 was 100 to 10000 nM; at SSTR3, < 100 nM; on SSTR4, < 100 nM; on SSTR5, > 10000 nM.

For the molecule `Cc1cc(C)cc(-c2cnc3ncn(-c4cc(O)cc(F)c4)c(=O)c3c2CN(C)C[C@@H]2CCCN2)c1` [Compound A-45, 6-(3,5-dimethylphenyl)-3-(3-fluoro-5-hydroxyphenyl)-5-({methyl[(2S)-pyrrolidin-2-ylmethyl]amino}methyl)-3H,4H-pyrido[2,3-d]pyrimidin-4-one], the EC50 at SSTR1 is 100 to 10000 nM; on SSTR3, < 100 nM; at SSTR4 it was < 100 nM; on SSTR5, > 10000 nM.

Turning to `Cc1cc(C)cc(-c2cnc3ncn(-c4cc(F)cc(C#N)c4)c(=O)c3c2CN(C)C[C@@H]2CCCN2)c1` [Compound A-46, 3-[6-(3,5-dimethylphenyl)-5-({methyl[(2S)-pyrrolidin-2-ylmethyl]amino}methyl)-4-oxo-3H,4H-pyrido[2,3-d]pyrimidin-3-yl]-5-fluorobenzonitrile], the half-maximal effective concentration (EC50) in experiment [1] was 100 to 10000 nM; at SSTR3, 100 to 10000 nM; at SSTR4 (setting [2]), < 100 nM.

As for `CCN(CCN)Cc1c(-c2cc(C)cc(Cl)c2)cnc2nc(C)n(-c3cc(O)cc(F)c3)c(=O)c12` [Compound A-67, 5-{[(2-aminoethyl)(ethyl)amino]methyl}-6-(3-chloro-5-methylphenyl)-3-(3-fluoro-5-hydroxyphenyl)-2-methyl-3H,4H-pyrido[2,3-d]pyrimidin-4-one], the EC50 in experiment [1] is < 100 nM; at SSTR3, 100 to 10000 nM; at SSTR4 (setting [2]) it was < 100 nM.

`CN(Cc1c(-c2cccc3ccccc23)cnc2ncn(-c3cccc(O)c3)c(=O)c12)CC1CCCCN1` (stereo not shown) [Compound A-69, 3-(3-hydroxy-phenyl)-5-[(methyl-piperidin-2-ylmethyl-amino)-methyl]-6-naphthalen-1-yl-3H-pyrido[2,3-d]pyrimidin-4-one]: the EC50 (in experiment [1]; on SSTR3; on SSTR4 (setting [2])) was < 100 nM throughout.

For `Cc1cc(Cl)cc(-c2cnc3ncn(-c4cc(O)cc(C#N)c4)c(=O)c3c2CN(C)C[C@@H]2CCCN2)c1` [Compound A-71, 6-(3-methyl-5-chlorophenyl)-3-(3-cyano-5-hydroxyphenyl)-5-({methyl[(2S)-pyrrolidin-2-ylmethyl]amino}methyl)-3H,4H-pyrido[2,3-d]pyrimidin-4-one], the EC50 (in experiment [1]; at SSTR3; on SSTR4 (setting [2])) was < 100 nM each time.

Source of the values: patent publication US9957267B2, “Somatostatin modulators and uses thereof” (Crinetics Pharmaceuticals, Inc., priority 2015, dated 2018).
